Patent US20250074943A1, “DLL3 BINDING PEPTIDES AND USES THEREOF” (AMGEN INC., priority 2021, published 2025)
Where two headings read alike, the source gives them in different places. Numbered stars: 1 amine (or outer) side, 2 acyl side, 3 side chain; on linkers, the order of the positions; unused ones are H or OH. Bridge positions count the residues as written; N and C are the ends. Primed or numbered codes have the meaning given here. Peptide text beside a SMILES is read from it. I, II: the chains in the order shown. * marks the point of attachment. X8 = NC(=O)[C@H](CCCCNC(=O)CCOCCOCCOCCOCCNC(=O)CCOCCOCCOCCN(CCOCCOCCOCCC(=O)NCCOCCOCCOCCOCCC(=O)NCCCC[C@H](NC(=O)CCC(=O)NCCCOCCOCCOCCCN[*:2])C(N)=O)C(=O)CNC(=O)CCOCCOCCOCCOCCNC(=O)CCC(=O)N1Cc2ccccc2C#Cc2ccccc21)NC(=O)CCC(=O)NCCCOCCOCCOCCCN[*:1]; X15 = NC(=O)[C@H](CCCCNC(=O)CCOCCOCCOCCN(CCOCCOCCOCCC(=O)NCCCC[C@H](NC(=O)CCC(=O)NCCCOCCOCCOCCCN[*:2])C(N)=O)C(=O)CNC(=O)CCOCCOCCOCCOCCNC(=O)CCC(=O)N1Cc2ccccc2C#Cc2ccccc21)NC(=O)CCC(=O)NCCCOCCOCCOCCCN[*:1]; X1 = NC(=O)[C@H](CCCCNC(=O)CCOCCOCCOCCOCCNC(=O)CCC(=O)N1Cc2ccccc2C#Cc2ccccc21)NC(=O)CCC(=O)NCCCOCCOCCOCCCN*; K(PEG4-DBCO-FEA) = Lys whose side chain carries PEG4-DBCO conjugated to fluoroethylazide (FEA); Ttds(4) = trioxatridecan-succinamic acid (linker), O=C(CCC(=O)[*:2])NCCCOCCOCCOCCCN[*:1]; Ttds(3) = Trioxatridecan-succinamic acid linker, O=C(CCC(=O)[*:2])NCCCOCCOCCOCCCN[*:1]

What was measured:
[1] = target: T1, rhDLL3-Fc (Homo sapiens, UniProt Q9NYJ7); assay: SPR binding / off-rate screening (Biacore T200); details: for binding to rhDLL3-Fc, complex half-life: single point SPR
T1 construct: The recombinant DLL3 ectodomain (rhDLL3-Fc) was biotinylated; Fc
T1 sequence (Q9NYJ7 27-492 limits assumed): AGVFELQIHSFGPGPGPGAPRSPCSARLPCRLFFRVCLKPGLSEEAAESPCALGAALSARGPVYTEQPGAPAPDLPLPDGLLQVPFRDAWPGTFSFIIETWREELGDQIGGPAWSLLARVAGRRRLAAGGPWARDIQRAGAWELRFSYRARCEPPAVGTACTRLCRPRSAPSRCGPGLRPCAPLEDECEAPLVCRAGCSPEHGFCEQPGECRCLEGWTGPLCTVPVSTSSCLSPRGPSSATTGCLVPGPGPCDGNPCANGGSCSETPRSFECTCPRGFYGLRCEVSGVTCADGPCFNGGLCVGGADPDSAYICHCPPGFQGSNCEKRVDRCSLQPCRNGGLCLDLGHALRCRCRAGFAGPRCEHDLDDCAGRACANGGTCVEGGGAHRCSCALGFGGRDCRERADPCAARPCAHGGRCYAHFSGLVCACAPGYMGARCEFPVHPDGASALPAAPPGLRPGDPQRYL
Procedure: […] The recombinant DLL3 ectodomain (rhDLL3-Fc) was biotinylated using EZ-Link Sulfo-NHS-LC-LC-Biotin Kit according to the manufacturer's protocol (Pierce by Thermo Fisher Scientific). The recombinant protein was incubated with an excess of NHS-LC-LC Biotin ester, in a molar ratio of 1:3 (protein: biotin), at 25° C. for 90 min. The un-reacted biotin ester was removed by subsequent buffer exchange on 0.5 ml Zeba spin desalting columns 7K MWCO (Pierce by Thermo Fisher Scientific).
The off-rate screening of the peptides was done using a Biacore T200 instrument (Cytiva, Sweden). […] Sensorgrams were analyzed by Biacore T200 Evaluation Software 3.0 (Cytiva, Sweden): specific binding was obtained by subtracting unspecific binding to naked biosensors and a zero analyte concentration made of binding assay buffer (double referencing). […]

[2] = target: T2, recombinant DLL3 ectodomain (rhDLL3-Fc) (Homo sapiens, UniProt Q9NYJ7); assay: Binding kinetic assay using Bio-layer interferometry (BLI); details: for Kd: global fitting 1:1 Langmuir, koff vs kon ratio; for binding mode to DLL3: peptides at 20, 4 and 0.8 μM, fit to 1:1 Langmuir binding model
T2 construct: The recombinant DLL3 ectodomain (rhDLL3-Fc) was biotinylated; Fc
T2 sequence (Q9NYJ7 27-492 limits assumed): T1 sequence (Q9NYJ7 27-492 limits assumed)
Procedure: Binding kinetic assays were performed using Bio-layer interferometry (BLI) technology. The recombinant DLL3 ectodomain (rhDLL3-Fc) was biotinylated using EZ-Link Sulfo-NHS-LC-LC-Biotin Kit according to the manufacturer's protocol (Pierce by Thermo Fisher Scientific). The recombinant protein was incubated with an excess of NHS-LC-LC Biotin ester, in a molar ratio of 1:3 (protein: biotin), at 25° C. for 90 min. The un-reacted biotin ester was removed by subsequent buffer exchange on 0.5 ml Zeba spin desalting columns 7K MWCO (Pierce by Thermo Fisher Scientific).

[3] = Table 4, ± values from three independent experiments
[4] = Table 4, ± values from three independent experiments, read-out: RT (residence time) (converted)
[5] = Table 8, curve fitting of SPR sensorgrams, read-out: koff
[6] = Table 8, curve fitting of SPR sensorgrams, read-out: kon

| Compound | residence time [2, 4] [min] | koff [1, 5] [s⁻¹] | kon [1, 6] [M⁻¹ s⁻¹] | binding to rhDLL3-Fc, complex half-life [1] | further results |
| --- | --- | --- | --- | --- | --- |
| [Ac-AETVEFWWCNGNSENWTCTW-GG-Ttds-K(Ttds-Ttds-PEG3)]2-PEG4-DBCO- [PepSP1583] | – | – | – | tight rhDLL3-Fc binders with a stable complex half-life | – |
| [Ac-AETVEFWWCNGNSENWTCTW-GG-Ttds-K(PEG3)]2-PEG4-DBCO-FEA (Ac-AETVEFWWCNGNSENWTCTWGG-{Ttds(4)-K(PEG3)}; not fully specified (bridges); printed as [Ac-AETVEFWWCNGNSENWTCTW-GG-Ttds-K(PEG3)]2-PEG4-DBCO-FEA; cysteine pairing not given here; also: dimer linked via PEG4-DBCO-FEA) [PepSP1581] | – | – | – | tight rhDLL3-Fc binders with a stable complex half-life | – |
| CC(=O)N[C@@H](C)C(=O)N[C@@H](CCC(=O)O)C(=O)N[C@H](C(=O)N[C@H](C(=O)N[C@@H](CCC(=O)O)C(=O)N[C@@H](Cc1ccccc1)C(=O)N[C@@H](Cc1c[nH]c2ccccc12)C(=O)N[C@@H](Cc1c[nH]c2ccccc12)C(=O)N[C@H]1CSSC[C@@H](C(=O)N[C@H](C(=O)N[C@@H](Cc2c[nH]c3ccccc23)C(=O)NCC(=O)NCC(=O)NCCCOCCOCCOCCCNC(=O)CCC(=O)N[C@@H](CCCCNC(=O)CCOCCOCCOCCOCCNC(=O)CCC(=O)N2Cc3ccccc3C#Cc3ccccc32)C(N)=O)[C@@H](C)O)NC(=O)[C@H]([C@@H](C)O)NC(=O)[C@H](Cc2c[nH]c3ccccc23)NC(=O)[C@H](CC(N)=O)NC(=O)[C@H](CCC(=O)O)NC(=O)[C@H](CO)NC(=O)[C@H](CC(N)=O)NC(=O)CNC(=O)[C@H](CC(N)=O)NC1=O)C(C)C)[C@@H](C)O [PepSP1462] (Ac-AETVEFWWCNGNSENWTCTWGG-X1; disulfide 9-18 (inferred)) | – | – | – | – | koff [1]: 0.0014 s⁻¹; kon [1]: 230000 M⁻¹ s⁻¹ |
| CC(C)[C@H](NC(=O)[C@@H](NC(=O)[C@H](CCC(=O)O)NC(=O)[C@H](C)N)[C@@H](C)O)C(=O)N[C@@H](CCC(=O)O)C(=O)N[C@@H](Cc1ccccc1)C(=O)N[C@@H](Cc1c[nH]c2ccccc12)C(=O)N[C@H](C(=O)N[C@H]1CSSC[C@@H](C(=O)N[C@@H](CO)C(=O)N[C@@H](Cc2c[nH]c3ccccc23)C(N)=O)NC(=O)[C@H]([C@@H](C)O)NC(=O)[C@H](Cc2c[nH]c3ccccc23)NC(=O)[C@H](CCC(=O)O)NC(=O)[C@H](CC(=O)O)NC(=O)[C@H](C)NC(=O)[C@H](CC(N)=O)NC(=O)CNC(=O)[C@H](Cc2c[nH]cn2)NC1=O)[C@@H](C)O [PepSP1162] (H-AETVEFWTCHGNADEWTCSW-NH2; disulfide 9-18) | 0.85 | – | – | – | binding mode to DLL3 [2]: dose-response saturable binding |
| CC(C)[C@H](NC(=O)[C@@H](NC(=O)[C@H](CCC(=O)O)NC(=O)[C@H](C)N)[C@@H](C)O)C(=O)N[C@@H](CCC(=O)O)C(=O)N[C@@H](Cc1ccccc1)C(=O)N[C@@H](CC(=O)O)C(=O)NCC(=O)N[C@H]1CSSC[C@@H](C(=O)N[C@@H](Cc2c[nH]c3ccccc23)C(=O)N[C@@H](Cc2c[nH]c3ccccc23)C(N)=O)NC(=O)[C@H]([C@@H](C)O)NC(=O)[C@H](Cc2c[nH]c3ccccc23)NC(=O)[C@H](CCC(=O)O)NC(=O)[C@H](Cc2ccc(O)cc2)NC(=O)[C@H](Cc2c[nH]c3ccccc23)NC(=O)[C@H](CC(=O)O)NC(=O)CNC(=O)[C@H](CCCCN)NC1=O [PepSP1164] (H-AETVEFDGCKGDWYEWTCWW-NH2; disulfide 9-18) | 2.08 | – | – | – | Kd [2, 3]: 125 nM; binding mode to DLL3 [2]: dose-response saturable binding |
| [Ac-AETVEFWWCNGNSENWTCTW-GG-Ttds-K(PEG4-PEG3)]2-PEG4-DBCO-FEA [PepSP1582] | – | – | – | tight rhDLL3-Fc binders with a stable complex half-life | – |
| Ac-AETVEFWWCNGNSENWTCTW-GG-Ttds-K(PEG4-DBCO-FEA)-NH2 (Ac-AETVEFWWCNGNSENWTCTWGG-{Ttds(3)-K(PEG4-DBCO-FEA)-NH2}; cysteine pairing not given here) [PepSP1538] | – | – | – | tight rhDLL3-Fc binders with a stable complex half-life | – |

Continued, in another order:

| residence time [2, 4] [min] | koff [1, 5] [s⁻¹] | kon [1, 6] [M⁻¹ s⁻¹] | Compound | binding to rhDLL3-Fc, complex half-life [1] | further results |
| --- | --- | --- | --- | --- | --- |
| 1.83 | 0.0097 | 140000 | CC(C)[C@H](NC(=O)[C@@H](NC(=O)[C@H](CCC(=O)O)NC(=O)[C@H](C)N)[C@@H](C)O)C(=O)N[C@@H](CCC(=O)O)C(=O)N[C@@H](Cc1ccccc1)C(=O)N[C@@H](Cc1c[nH]c2ccccc12)C(=O)N[C@@H](Cc1c[nH]c2ccccc12)C(=O)N[C@H]1CSSC[C@@H](C(=O)N[C@H](C(=O)N[C@@H](Cc2c[nH]c3ccccc23)C(N)=O)[C@@H](C)O)NC(=O)[C@H]([C@@H](C)O)NC(=O)[C@H](Cc2c[nH]c3ccccc23)NC(=O)[C@H](CC(N)=O)NC(=O)[C@H](CCC(=O)O)NC(=O)[C@H](CO)NC(=O)[C@H](CC(N)=O)NC(=O)CNC(=O)[C@H](CC(N)=O)NC1=O [PepSP1171] | – | Kd [2, 3]: 70 ± 19 nM; binding mode to DLL3 [2]: dose-response saturable binding; residence time ([2]; range over the seven peptides, read-out: residence time): 1 to 3 min; affinity ([2]; wider dose-response 10×KD to 0.1×KD): double-digit nM range; Kd ([1]; Table 8, curve fitting of SPR sensorgrams): 70 nM |
| – | 0.00042 | 76000 | I: Ac-AETVEFWWCNGNSENWTCTWGG / II: Ac-AETVEFWWCNGNSENWTCTWGG (disulfide I:9-I:18, II:9-II:18; linker I:C-II:C via X15) [PepSP1487] | – | – |
| 0.333 | – | – | C[C@@H](O)[C@H](NC(=O)[C@@H]1CSSC[C@H](NC(=O)[C@H](CC(=O)O)NC(=O)[C@@H](N)Cc2c[nH]c3ccccc23)C(=O)N[C@@H](Cc2c[nH]c3ccccc23)C(=O)NCC(=O)N[C@@H](CC(N)=O)C(=O)N[C@@H]([C@@H](C)O)C(=O)N[C@@H](CC(=O)O)C(=O)N[C@@H](CC(=O)O)C(=O)N[C@@H](Cc2c[nH]c3ccccc23)C(=O)N[C@@H]([C@@H](C)O)C(=O)N1)C(=O)N[C@@H](Cc1c[nH]c2ccccc12)C(N)=O [PepSP1269] (H-WDCWGNTDDWTCTW-NH2; disulfide 3-12; N-terminus assumed) | – | – |
| – | 0.00031 | 120000 | I: Ac-AETVEFWWCNGNSENWTCTWGG / II: Ac-AETVEFWWCNGNSENWTCTWGG (disulfide I:9-I:18, II:9-II:18; linker I:C-II:C via X8) [PepSP1488] | – | – |
| – | 0.00037 | 110000 | CCCCOCCOCCOCCC(=O)CCCCCCCCCCCCCCCC(=O)CCC(=O)NCCCOCCOCCOCCCNC(=O)CCC(=O)CCCCC[C@@H](CC(=O)CCC(=O)NCCCOCCOCCOCCCNC(=O)CNC(=O)CNC(=O)[C@@H](Cc1c[nH]c2ccccc12)NC(=O)[C@H](CC(=O)[C@H]1CCCC[C@@H](CN[C@@H](Cc2c[nH]c3ccccc23)NC(=O)[C@@H](Cc2c[nH]c3ccccc23)NC(=O)[C@H](CC(=O)[C@@H](CCC(=O)O)CC(=O)[C@H](CC(=O)[C@](C)(NC(=O)[C@@H](CCC(C)=O)CC(=O)CCC(C)=O)C(C)C)C(C)C)Cc2ccccc2)C(=O)C[C@H](CC(C)=O)C(=O)NCC(=O)NC(CC(C)=O)C(=O)C[C@H](CC)C(=O)NC(CCC(C)=O)C(=O)C[C@H](CC(C)=O)C(=O)CC(Cc2c[nH]c3ccccc23)C(=O)C[C@H]([C@H](C)O)C(=O)C1)[C@H](C)O)C(C)=O (some centres unmarked) [PepSP1489] | – | – |
